Measurements taken from US7803619B2, “Embryoid body-based screen” (Geneprotech, Inc., priority 2004, dated 2010).

Tests used:
[1] = tested on: EB from ES cell line (ES-6) containing necdin-puromycin-IRES-β-galactosidase cassette; assay: Embryoid body neurogenesis screen: necdin promoter-driven β-galactosidase expression; assay type: cell-based, mouse; conditions: 48 h exposure
Protocol: A brief description of the procedure follows. A tagged ES cell line containing a stably integrated necdin-puromycin-IRES-β-galactosidase cassette was allowed to form EBs. One thousand cells in 200 μl media without LIF were plated in a 96-well PCR plate. On the third day, the EBs were transferred to a 96-well tissue culture plate coated with laminin. The medium was changed on the fourth day and appropriate small molecule compounds were added with each compound being assessed in triplicate. Six wells received no treatment and six wells received treatment with vehicle control (DMSO or ethanol diluted in similar manner as small molecule compounds). The cells were incubated with compounds for 48 hours, compounds removed by washing with PBS and cells allowed to grow and differentiate in media for 4 days. Cells were lysed on the fifth day and the lysates were analyzed for β-galactosidase expression. […] Two positive controls, 50 ng/ml nerve growth factor (NGF) and 1 uM retinoic acid (RA) (Sigma Chemical, St. Louis) and small molecule compounds (piperine, curcumin, rosmarinic acid, U0126, LY294002) were used for screening. Fold increase was calculated based on the respective vehicle control […] activity. […] This is not surprising since NGF is a stronger neurogenic growth factor than is RA. […]
An ES cell line (ES-6; Preliminary Studies Section C.2.) containing a stably integrated necdin-puromycin-IRES-β-galactosidase cassette was allowed to form EB. […] The medium was changed on the fourth day and appropriate small molecule compounds were added with each compound being assessed in triplicate. […] Cells were lysed on the fifth day and the lysates were analyzed for β-galactosidase expression. […] Fold increase was calculated based on the respective vehicle control β-galactosidase activity. […]
After addition of puromycin to the media, neuronal cells are the anticipated survivors and other cell types are expected to be eliminated. Since activity of the necdin promoter confers β-galactosidase expression, a quantitative measurement of β-galactosidase activity is performed. […]

[2] = tested on: endothelial cell culture system; conditions: cited from earlier work
chorioallantoic membrane = conditions: cited from earlier work
EB = conditions: cited from earlier work
murine ES cells = conditions: cited from earlier work
[3] = tested on: myeloid leukemia HL60 cells; conditions: cited from earlier work

Compound: CC1=C(/C=C/C(C)=C/C=C/C(C)=C/C(=O)O)C(C)(C)CCC1 [RA, retinoic acid]
- Fold increase in neurogenesis (β-galactosidase activity relative to respective vehicle control) ([1]; positive control, 1 uM): 11 fold

Compound: O=C(/C=C/C=C/c1ccc2c(c1)OCO2)N1CCCCC1 [piperine]
- Fold increase in neurogenesis (β-galactosidase activity relative to respective vehicle control) ([1]; small molecule compound at 10 μM, lysed on fifth day after removal): 3.3 fold

Compound: O=C1CCC(N2C(=O)c3ccccc3C2=O)C(=O)N1 (centres unmarked) [thalidomide]
- Anti-angiogenic effect [2]: no anti-angiogenic effect
- Anti-angiogenic effect (chorioallantoic membrane): no anti-angiogenic effect
- Anti-angiogenic effect (EB): had anti-angiogenic effect

Compound: O=C1O[C@H]([C@@H](O)CO)C(O)=C1O [vitamin C, ascorbic acid]
- Number of cardiac myocytes showing rhythmic contractile activity, positive for sarcomeric myosin and alpha-actinin (murine ES cells): markedly increased

Compound: boswellic acid acetate
- Differentiation into monocyte-like cells [3]: induces differentiation

Compound: nerve growth factor [NGF]
- Fold increase in neurogenesis (β-galactosidase activity relative to respective vehicle control) ([1]; positive control, 50 ng/ml): 30 fold
